Data taken from patent publication US8633212B2, “Inhibitors of beta-secretase” (Vitae Pharmaceuticals, Inc., priority 2009, dated 2014).
Read-outs that look alike come from different tables or passages of the source.

Legend:
[1] = molecular target: truncated human beta-secretase (residues 1-458, His6-tagged at the C-terminus) (Homo sapiens (Human), UniProt P56817); test: BACE enzyme assay (fluorescence quench assay, Example 434A); assay type: biochemical
[2] = molecular target: H4 neuroglioma cell line stably expressing APP with the KM-NL Swedish mutation (H4-APPsw); soluble Amyloid Beta 1-40 (Aβ 1-40) (Homo sapiens (Human), UniProt P56817); test: BACE cell assay: soluble Aβ 1-40 in culture media of H4-APPsw cells (AlphaLISA/ELISA); assay type: cell-based; conditions: in vitro cell activity; H4-APPsw cells treated overnight, secreted Aβ 1-40 in culture media
Experimental: H4 neuroglioma cell line that stably expresses Amyloid Precursor Protein (APP) containing the KM-NL Swedish mutation (H4-APPsw) was generated. For the assay, cells are treated overnight in the presence of inhibitor and the culture media are subjected to ELISA analysis of soluble Amyloid Beta 1-40 (Aβ 1-40).
Generation and Maintenance of H4-APPsw Cell Line
H4 neuroglioma cell line was cultured in DMEM with 10% FBS and 1% penicillin/streptomycin (Culture Medium) at 37° C., 5% CO2. […] 24 hrs after transfection, the cells were replaced into three new plates (150 mm) in fresh Culture Medium with 250 ug/mL Zeocin. […] The levels of APPsw expression were analyzed by immunoblotting and the production of Aβ 1-40 was detected by ELISA of culture supernatants. The selected clones are maintained in Culture Medium with 250 μg/mL Zeocin and routinely split in 3-4 days to maintain 20-80% confluence.
Final Assay Conditions (96-Well Plate)
Split H4-APPsw cells in Culture Medium and culture overnight such that cells will be ˜80% confluent next morning.
Create Compound Dilution Plate.
After determining the desired final concentration of compound to be tested, create a 500× dilution plate. Add DMSO, but not inhibitor, to each well of Column 1. […] Add compounds of interest at 500× desired final concentration to wells A3-A10. […] Dilute contents of Row A 1:3 in Row B, then continue through Rows C-H.
Add 4 μL 5 mM control compound to Media Plate wells A1-D1 for determination of full inhibition.
With a multichannel pipettor, mix each well of Media Plate several times to insure homogeneity. […] Next, place Medium Plate and Cell Plate in the incubator.
Trypsinize and count H4-APPsw cells. Dilute cells 6×10^5 cells/mL in Culture Medium and remove Cell Plate from incubator. Vortex cells to homogeneity, then using a multichannel repeating pipettor, add 100 μL cell suspension to Cell Plate, adding cells from Row H to Row A. Place Cell Plate in incubator.
Change media in Cell Plate.
After 5 h, check Cell Plate by microscope to insure cells are attached. In culture hood, remove media from Cell Plate using multichannel repeating pipettor. Add 100 μl Culture Medium to each well. Remove Media Plate from incubator and mix with pipettor as previous. Add 100 μl from each well of Media Plate to corresponding well in Cell Plate. Place Cell Plate in incubator overnight.
Perform ELISA to determine levels of secreted Aβ 1-40.
After 16 h incubation, spin Cell Plate for 8 min at 1200 rpm. The primary reading of Aβ 1-40 levels is done using PerkinElmer AlphaLISA technology. Follow the manufacturer's protocol for performing AlphaLISA in a white ½ area Optiwell plate using Row 12 for peptide standard (1:2 dilutions, starting at 15 ng/ml). Data are acquired using PerkinElmer Fusion-Alpha FP-HT, Alpha protocol (Count Time 0.6s, Count Time Ratio 30%:70%).
Export data from Fusion using Columnar Report format into a separate file for each plate. Upload data into Activity Base using RIA-DOSE-RESPONSE protocol (Version 1). Data from at least eight doses were fitted to a four parameter logistical model using XLfit software to determine potency.

[3] = footnote a: protocols described in Example 434A, read-out: IC50

Chain of truncated human beta-secretase (residues 1-458, His6-tagged at the C-terminus) (P56817 22-458): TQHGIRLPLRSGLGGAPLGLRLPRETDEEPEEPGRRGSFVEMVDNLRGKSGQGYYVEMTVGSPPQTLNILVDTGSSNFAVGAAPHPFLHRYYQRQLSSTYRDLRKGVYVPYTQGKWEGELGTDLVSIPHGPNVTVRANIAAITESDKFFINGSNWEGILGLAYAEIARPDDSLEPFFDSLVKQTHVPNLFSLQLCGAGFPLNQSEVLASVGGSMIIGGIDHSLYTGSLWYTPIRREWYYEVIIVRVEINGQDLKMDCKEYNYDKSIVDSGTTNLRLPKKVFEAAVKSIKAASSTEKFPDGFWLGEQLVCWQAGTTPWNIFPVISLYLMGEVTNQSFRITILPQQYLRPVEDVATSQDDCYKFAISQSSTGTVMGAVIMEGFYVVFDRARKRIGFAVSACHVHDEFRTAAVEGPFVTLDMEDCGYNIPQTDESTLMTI
Chain of H4 neuroglioma cell line stably expressing APP with the KM-NL Swedish mutation (H4-APPsw); soluble Amyloid Beta 1-40 (Aβ 1-40) (P56817 46-501 limits assumed, change not shown): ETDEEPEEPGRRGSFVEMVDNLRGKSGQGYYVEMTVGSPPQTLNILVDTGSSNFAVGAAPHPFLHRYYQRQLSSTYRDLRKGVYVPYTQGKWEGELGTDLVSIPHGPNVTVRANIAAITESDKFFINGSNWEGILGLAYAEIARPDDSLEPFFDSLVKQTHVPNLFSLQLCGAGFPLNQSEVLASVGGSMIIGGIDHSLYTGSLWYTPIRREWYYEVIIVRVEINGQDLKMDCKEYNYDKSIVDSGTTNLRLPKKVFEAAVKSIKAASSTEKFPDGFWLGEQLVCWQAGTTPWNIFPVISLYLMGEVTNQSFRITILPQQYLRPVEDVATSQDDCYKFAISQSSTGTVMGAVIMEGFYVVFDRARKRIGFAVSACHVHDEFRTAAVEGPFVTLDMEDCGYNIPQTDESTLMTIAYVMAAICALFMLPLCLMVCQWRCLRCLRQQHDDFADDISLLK

Compound	IC50 [1, 3] [nM]	other results
COC1CCC2(CC1)Cc1ccc(-c3cc(F)cc(Cl)c3)cc1C21N=C(N)N(C)O1 (stereo not drawn) [Compound 1]	2.6	IC50 [2]: < 100 nM
COC1CCC2(CC1)Cc1ccc(C#CC3CC3)cc1C21N=C(N)N(C)O1 (stereo not drawn) [Compound 3]	4.5	IC50 [2]: < 100 nM
COC1CCC2(CC1)Cc1ccc(-c3cc(C)cc(C)c3)cc1C21N=C(N)N(C)O1 (stereo not drawn) [Compound 19]	14.6	IC50 [2]: < 500 nM
COC1CCC2(CC1)Cc1ccc(-c3cccc(C(F)(F)F)c3)cc1C21N=C(N)N(C)O1 (stereo not drawn) [Compound 20]	18.7	IC50 [2]: < 500 nM
CCOC1CCC2(CC1)Cc1ccc(C#CC3CC3)cc1C21N=C(N)N(C)O1 (stereo not drawn) [Compound 24]	21	
COC1CCC2(CC1)Cc1ccc(-c3cccc(C#N)c3)cc1C21N=C(N)N(C)O1 (stereo not drawn) [Compound 25]	26.2	IC50 [2]: < 100 nM
CN1C(=O)C2(N=C1N)c1cc(-c3cc(F)cc(Cl)c3)ccc1CC21CCc2ccccc2CC1 (stereo not drawn) [Compound 26]		IC50 [2]: < 5000 nM
CCO[C@H]1CC[C@]2(CC1)Cc1ccc(-c3cccc(C#N)c3)cc1C21N=C(N)N(C)O1 (stereo partly drawn) [Compound 28]		IC50 ([1]; read-out: IC50): 41.7 nM; IC50 [2]: < 500 nM
CN1C(=O)C2(N=C1N)c1cc(-c3cccc(C#N)c3)ccc1CC21CCc2ccccc2CC1 (stereo not drawn) [Compound 29]		IC50 [2]: < 500 nM
CN1OC2(N=C1N)c1cc(Cl)ccc1CC21CCc2ccccc2CC1 (stereo not drawn) [Compound 30]	61.6	IC50 [2]: < 5000 nM
CN1OC2(N=C1N)c1cc(Br)ccc1CC21CCc2ccccc2CC1 (stereo not drawn) [Compound 31]		IC50 ([1]; read-out: IC50): 64 nM; IC50 [2]: < 5000 nM
COC1CCC2(CC1)Cc1ccc(-c3cc(F)ccc3C)cc1C21N=C(N)N(C)O1 (stereo not drawn) [Compound 32]	74.1	
CN1OC2(N=C1N)c1ccccc1CC21CCc2ccccc2CC1 (stereo not drawn) [Compound 35]		IC50 [2]: < 1000 nM
COC1CCC2(CC1)Cc1ccc(-c3ccc4cc[nH]c4c3)cc1C21N=C(N)N(C)O1 (stereo not drawn) [Compound 37]	126	
CN1OC2(N=C1N)c1cc(-c3cccc(C#N)c3)ccc1CC21CCOCC1 (stereo not drawn) [Compound 51, 3-(spiro[spiro[2,3-dihydro-indene-2,1′-(4-oxacyclohexane)]-1,5′-(3-amino-2-methyl-2H-[1,2,4]oxadiazole)]-6-yl)benzonitrile]	466	
CN1OC2(N=C1N)c1cc(-c3cccc(C#N)c3)ccc1CC21C=CC(c2ccccc2)C1 (stereo not drawn) [Compound 53]		IC50 [2]: < 50000 nM
CN1C(=O)C2(N=C1N)c1cc(Br)ccc1CC21CCc2ccccc2CC1 (stereo not drawn) [Compound 56]		IC50 [2]: < 5000 nM
CN1OC2(N=C1N)c1cc(-c3cccc(C#N)c3)ccc1CC21Cc2cccc3cccc(c23)C1 (stereo not drawn) [Compound 61]	3260	

Compound	IC50 [1, 3] [nM]	other results
CO[C@H]1CC2(Cc3ccc(-c4cccc(C#N)c4)cc3C23N=C(N)N(C)O3)C[C@H]1OC (stereo partly drawn) [Compound 62]	4110	
CN1OC2(N=C1N)c1cc(-c3cccc(C#N)c3)ccc1CCC21CCc2ccccc2CC1 (stereo not drawn) [Compound 63]	5050	
CO[C@H]1CC[C@@]2(CC1)Cc1ccc(-c3cccc(C#N)c3)cc1C21CC(=O)N(C)C(N)=N1 (stereo partly drawn) [Compound 65]	50000	
CN1OC2(N=C1N)c1cc(Br)ccc1OC21CCc2ccccc2CC1 (stereo not drawn) [Compound 67]	138	
COC1CCC2(CC1)Oc1ccc(-c3cccc(C#N)c3)cc1C21N=C(N)N(C)O1 (stereo not drawn) [Compound 68]	1780	
CN1OC2(CC3(CCOCC3)c3ccc(-c4cccc(C#N)c4)cc32)N=C1N (stereo not drawn) [Compound 69, 3-(spiro[spiro[2,3-dihydro-indene-3,1′-(4-oxacyclohexane)]-1,5′-(3-amino-2-methyl-2H-[1,2,4]oxadiazole)]-6-yl)benzonitrile]	4700	
CCOC1CCC2(CC1)Cc1ccc(-c3cccc(C#N)c3)cc1C21N=C(N)N(C)O1 (stereo not drawn) [Compound 82]	432	
COC1CCC2(CC1)Cc1ccc(Br)cc1C21N=C(N)N(C)O1 (stereo not drawn) [Compound 95]	137	
CN1OC2(N=C1N)c1cc(C#CC3CC3)ccc1CC21CCC(OC(F)F)CC1 (stereo not drawn) [Compound 99]		IC50 [1]: 2.4 nM
Cc1ccc2c(c1)C1(N=C(N)N(C)O1)C1(CCc3ccccc3CC1)C2 (stereo not drawn) [Compound 104]	255	
CN1OC2(N=C1N)c1cc(C#CC3CC3)ccc1CC21CCc2ccccc2CC1 (stereo not drawn) [Compound 105]	8.4	
COC1CCC2(CC1)Cc1ccc(-c3ccnnc3)cc1C21N=C(N)N(C)O1 (stereo not drawn) [Compound 108]	156	
COC1CCC2(CC1)Cc1ccc(-c3cnccn3)cc1C21N=C(N)N(C)O1 (stereo not drawn) [Compound 109]	23.6	
COC1CCC2(CC1)Cc1ccc(OCC3CC3)cc1C21N=C(N)N(C)O1 (stereo not drawn) [Compound 110]	14.6	
COC1CCC2(CC1)Cc1ccc(C#CC(F)(F)F)cc1C21N=C(N)N(C)O1 (stereo not drawn) [Compound 115]	3.7	
CN1OC2(N=C1N)c1cc(-c3cccnn3)ccc1CC21CCc2ccccc2CC1 (stereo not drawn) [Compound 121]		IC50 ([1]; read-out: IC50): 56.2 nM
CN1OC2(N=C1N)c1cc(-c3ccnnc3)ccc1CC21CCc2ccccc2CC1 (stereo not drawn) [Compound 122]	42.5	
CN1OC2(N=C1N)c1cc(-c3cccc(C#N)c3)ccc1CC21CCc2cnncc2CC1 (stereo not drawn) [Compound 456]	877	

Further lines, with some results ahead:

IC50 [1, 3] [nM]	Compound	other results
2.1	COC1CCC2(CC1)Cc1ccc(C#CC3CC3)cc1C21N=C(N)N(C)C1=O (stereo not drawn) [Compound 76]	
3880	CN1OC2(N=C1N)c1cc(-c3cccc(C#N)c3)ccc1CC21CCC(NCC(F)(F)F)CC1 (stereo not drawn) [Compound 97]	
3320	CN1OC2(N=C1N)c1cc(-c3cccc(C#N)c3)ccc1CC21CCC(NCC(F)(F)F)CC1 (stereo not drawn) [Compound 98]	
4.7	CN1OC2(N=C1N)c1cc(-c3cccc(C#N)c3)ccc1CC21CCC(OC(F)F)CC1 (stereo not drawn) [Compound 100]	
196	COc1cncc(-c2ccc3c(c2)C2(N=C(N)N(C)O2)C2(CCC(OC)CC2)C3)n1 (stereo not drawn) [Compound 111]	
80.4	COC1CCC2(CC1)Cc1ccc(C#Cc3ccccc3)cc1C21N=C(N)N(C)O1 (stereo not drawn) [Compound 112]	
24.6	COC1CCC2(CC1)Cc1ccc(C#CC(C)(C)C)cc1C21N=C(N)N(C)O1 (stereo not drawn) [Compound 113]	
9.7	COC1CCC2(CC1)Cc1ccc(C#CC3CCCC3)cc1C21N=C(N)N(C)O1 (stereo not drawn) [Compound 114]	
76.7	COC1CCC2(CC1)Cc1ccc(-c3cncs3)cc1C21N=C(N)N(C)O1 (stereo not drawn) [Compound 116]	
17.4	COC1CCC2(CC1)Cc1ccc(CCC3CC3)cc1C21N=C(N)N(C)O1 (stereo not drawn) [Compound 117]	
15.6	CCN1C(=O)C2(N=C1N)c1cc(C#CC3CC3)ccc1CC21CCC(OC)CC1 (stereo not drawn) [Compound 138]	
2	COC1CCC2(CC1)Cc1ccc(C#CC3CC3)cc1C21N=C(N)N(Cc2ccccc2)C1=O (stereo not drawn) [Compound 142]	
3	CN1C(=O)C2(N=C1N)c1cc(C#CC3CC3)ccc1CC21CCC(O)CC1 (stereo not drawn) [Compound 150]	
207	CN1C(=O)C2(N=C1N)c1cc(C#CC3CC3)ccc1CC21CCC(O)CC1 (stereo not drawn) [Compound 151]	
493	CO[C@H]1CC[C@]2(CC1)Cc1c(F)cccc1C21N=C(N)N(C)C1=O (stereo partly drawn) [Compound 249]	
29.2	COC1CCC2(CC1)Cc1ccc(C#CC3CC3)cc1C21N=C(N)NC1=O (stereo not drawn) [Compound 264]	
58.6	Cc1onc2c1CC1(CC2)Cc2ccc(-c3cccnc3)cc2C12N=C(N)N(C)O2 (stereo not drawn) [Compound 451]	
2.8	Cc1onc2c1CC1(CC2)Cc2ccc(C#CC3CC3)cc2C12N=C(N)N(C)C2=O (stereo not drawn) [Compound 467]	
16.7	Cc1onc2c1CC1(CC2)Cc2ccc(C#CC3CC3)cc2C12N=C(N)N(C)O2 (stereo not drawn) [Compound 468]	
33.1	COC1CCC2(CC1)Cc1ccc(C3=CC(O)CC3)cc1C21N=C(N)N(C)C1=O (stereo not drawn) [Compound 476]	
694	COC1CCC2(CC1)Cc1ccc(C#CC3CC3)cc1[C@@]21N=C(N)N(C)C1=O (stereo partly drawn) [Compound 477]	
2.2	COC1CCC2(CC1)Cc1ccc(C#CC3CC3)cc1[C@]21N=C(N)N(C)C1=O (stereo partly drawn) [Compound 478]	
